Measurements published in PubChem BioAssay (NCI).
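Grown in 96-well plates, cells were treated for 48 hours with each compound at five concentrations. Insufficient inhibition: endpoint recorded as highest concentration tested. GI50 marks 50% less growth. At the TGI there is no net growth.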

What was measured:
Experiment in all cases: NCI anticancer screen, dose series, 48 h
SW-620 colon = system: SW-620 colon
SN12C renal = system: SN12C renal
BT-549 breast = system: BT-549 breast
HCT-116 colon = system: HCT-116 colon
A549 NSCLC = system: A549 NSCLC
LOX IMVI melanoma = system: LOX IMVI melanoma
HT29 colon = system: HT29 colon
MDA-MB-435 = system: MDA-MB-435
KM12 colon = system: KM12 colon
SNB-75 CNS = system: SNB-75 CNS
OVCAR-8 ovarian = system: OVCAR-8 ovarian
HOP-92 NSCLC = system: HOP-92 NSCLC
UACC-257 melanoma = system: UACC-257 melanoma
PC-3 prostate = system: PC-3 prostate
RPMI-8226 leukemia = system: RPMI-8226 leukemia
MALME-3M melanoma = system: MALME-3M melanoma
SK-MEL-28 melanoma = system: SK-MEL-28 melanoma
U251 CNS = system: U251 CNS
NCI/ADR-RES ovarian = system: NCI/ADR-RES ovarian
HOP-62 NSCLC = system: HOP-62 NSCLC
COLO 205 colon = system: COLO 205 colon
K-562 leukemia = system: K-562 leukemia
CCRF-CEM leukemia = system: CCRF-CEM leukemia
SK-MEL-2 melanoma = system: SK-MEL-2 melanoma
NCI-H522 lung = system: NCI-H522 lung
A498 renal = system: A498 renal
NCI-H460 lung = system: NCI-H460 lung
NCI-H23 lung = system: NCI-H23 lung
TK-10 renal = system: TK-10 renal
DU-145 prostate = system: DU-145 prostate
SNB-19 CNS = system: SNB-19 CNS
SR leukemia = system: SR leukemia
HS 578T breast = system: HS 578T breast
T-47D breast = system: T-47D breast
CAKI-1 renal = system: CAKI-1 renal
IGROV1 ovarian = system: IGROV1 ovarian
SK-OV-3 ovarian = system: SK-OV-3 ovarian
HCC-2998 colon = system: HCC-2998 colon
ACHN renal = system: ACHN renal
EKVX NSCLC = system: EKVX NSCLC
MCF7 breast = system: MCF7 breast
UACC-62 melanoma = system: UACC-62 melanoma
SF-295 CNS = system: SF-295 CNS
MDA-MB-231 breast = system: MDA-MB-231 breast
HCT-15 colon = system: HCT-15 colon
SK-MEL-5 melanoma = system: SK-MEL-5 melanoma
SF-268 CNS = system: SF-268 CNS
NCI-H226 lung = system: NCI-H226 lung
RXF 393 renal = system: RXF 393 renal
OVCAR-4 ovarian = system: OVCAR-4 ovarian
MOLT-4 leukemia = system: MOLT-4 leukemia
OVCAR-5 ovarian = system: OVCAR-5 ovarian
SF-539 CNS = system: SF-539 CNS
786-0 renal = system: 786-0 renal
HL-60(TB) leukemia = system: HL-60(TB) leukemia
UO-31 renal = system: UO-31 renal
OVCAR-3 ovarian = system: OVCAR-3 ovarian
M14 melanoma = system: M14 melanoma

`O=C(Nc1ccc([N+](=O)[O-])cc1)c1cc2ccccc2cc1O` showed a GI50 (SW-620 colon) of 0.477 µM, a TGI (SW-620 colon) greater than 27.5 µM and a GI50 (SN12C renal) of 0.348 µM. It also gave a TGI (SN12C renal) of 5.92 µM, a GI50 (BT-549 breast) of 0.444 µM and a TGI (BT-549 breast) of 2.43 µM. For the same compound, the GI50 (HCT-116 colon) was 0.319 µM, the TGI (HCT-116 colon) was 1.32 µM and the GI50 (A549 NSCLC) was 0.454 µM. The TGI (A549 NSCLC) was greater than 21.5 µM, the GI50 (LOX IMVI melanoma) was 0.405 µM and the GI50 (HT29 colon) was 3.52 µM. For the same compound, the TGI (HT29 colon) was greater than 29.8 µM, the GI50 (MDA-MB-435) was 0.321 µM and the TGI (MDA-MB-435) was 1.64 µM. It also gave a GI50 (KM12 colon) of 0.698 µM, a TGI (KM12 colon) of 2.68 µM and a GI50 (SNB-75 CNS) of 0.538 µM. It also gave a TGI (SNB-75 CNS) of 4.07 µM, a GI50 (OVCAR-8 ovarian) of 0.425 µM and a TGI (OVCAR-8 ovarian) of 12.6 µM. For the same compound, the GI50 (HOP-92 NSCLC) was 0.172 µM, the TGI (HOP-92 NSCLC) was 0.557 µM and the GI50 (UACC-257 melanoma) was 0.313 µM. It also gave a TGI (UACC-257 melanoma) of 1.48 µM, a GI50 (PC-3 prostate) of 0.937 µM and a TGI (PC-3 prostate) of 7.88 µM. It also gave a GI50 (RPMI-8226 leukemia) of 0.291 µM, a TGI (RPMI-8226 leukemia) of 0.727 µM and a GI50 (MALME-3M melanoma) of 0.258 µM. The TGI (MALME-3M melanoma) was 1.11 µM, the GI50 (SK-MEL-28 melanoma) was 0.448 µM and the TGI (SK-MEL-28 melanoma) was greater than 36.5 µM. The GI50 (U251 CNS) was 0.36 µM, the TGI (U251 CNS) was 13.1 µM and the GI50 (NCI/ADR-RES ovarian) was 0.314 µM. The TGI (NCI/ADR-RES ovarian) was 3.13 µM, the GI50 (HOP-62 NSCLC) was 0.939 µM and the TGI (HOP-62 NSCLC) was 8.69 µM. The GI50 (COLO 205 colon) was 2.47 µM, the TGI (COLO 205 colon) was 6.41 µM and the GI50 (K-562 leukemia) was 0.347 µM. It also gave a TGI (K-562 leukemia) greater than 100 µM, a GI50 (CCRF-CEM leukemia) of 0.754 µM and a TGI (CCRF-CEM leukemia) greater than 100 µM. The GI50 (SK-MEL-2 melanoma) was 0.285 µM, the TGI (SK-MEL-2 melanoma) was 0.722 µM and the GI50 (NCI-H522 lung) was 0.268 µM. It also gave a TGI (NCI-H522 lung) of 1.61 µM, a GI50 (A498 renal) of 0.197 µM and a TGI (A498 renal) of 0.628 µM. The GI50 (NCI-H460 lung) was 0.365 µM, the TGI (NCI-H460 lung) was 6.31 µM and the GI50 (NCI-H23 lung) was 0.294 µM. It also gave a TGI (NCI-H23 lung) of 1.42 µM, a GI50 (TK-10 renal) of 0.402 µM and a TGI (TK-10 renal) of 6.82 µM. The GI50 (DU-145 prostate) was 0.484 µM, the TGI (DU-145 prostate) was greater than 100 µM and the GI50 (SNB-19 CNS) was 0.405 µM. It also gave a TGI (SNB-19 CNS) of 27.8 µM, a GI50 (SR leukemia) of 0.274 µM and a TGI (SR leukemia) of 1.05 µM. It also gave a GI50 (HS 578T breast) of 0.618 µM, a TGI (HS 578T breast) greater than 100 µM and a GI50 (T-47D breast) of 0.39 µM. The TGI (T-47D breast) was 8.89 µM, the GI50 (CAKI-1 renal) was 0.26 µM and the TGI (CAKI-1 renal) was 0.955 µM. It also gave a GI50 (IGROV1 ovarian) of 0.575 µM, a TGI (IGROV1 ovarian) of 12.5 µM and a GI50 (SK-OV-3 ovarian) of 0.384 µM. It also gave a TGI (SK-OV-3 ovarian) of 15.7 µM, a GI50 (HCC-2998 colon) of 1.25 µM and a TGI (HCC-2998 colon) of 4.8 µM. The GI50 (ACHN renal) was 0.38 µM, the TGI (ACHN renal) was 16.8 µM and the GI50 (EKVX NSCLC) was 0.322 µM. The TGI (EKVX NSCLC) was 3 µM, the GI50 (MCF7 breast) was 1.32 µM and the TGI (MCF7 breast) was 11.3 µM. The GI50 (UACC-62 melanoma) was 0.336 µM, the TGI (UACC-62 melanoma) was 1.45 µM and the GI50 (SF-295 CNS) was 1.15 µM. It also gave a TGI (SF-295 CNS) of 3.17 µM, a GI50 (MDA-MB-231 breast) of 0.413 µM and a TGI (MDA-MB-231 breast) of 1.89 µM. It also gave a GI50 (HCT-15 colon) of 0.365 µM, a TGI (HCT-15 colon) of 5.07 µM and a GI50 (SK-MEL-5 melanoma) of 0.221 µM. It also gave a TGI (SK-MEL-5 melanoma) of 0.534 µM, a GI50 (SF-268 CNS) of 0.515 µM and a TGI (SF-268 CNS) of 15.2 µM. The GI50 (NCI-H226 lung) was 0.503 µM, the TGI (NCI-H226 lung) was 5.37 µM and the GI50 (RXF 393 renal) was 0.34 µM. For the same compound, the TGI (RXF 393 renal) was 1.26 µM, the GI50 (OVCAR-4 ovarian) was 0.322 µM and the TGI (OVCAR-4 ovarian) was greater than 100 µM. For the same compound, the GI50 (MOLT-4 leukemia) was 0.675 µM, the TGI (MOLT-4 leukemia) was greater than 21.1 µM and the GI50 (OVCAR-5 ovarian) was 1.73 µM. It also gave a TGI (OVCAR-5 ovarian) of 48.2 µM, a GI50 (SF-539 CNS) of 0.388 µM and a TGI (SF-539 CNS) of 4.94 µM. For the same compound, the GI50 (786-0 renal) was 0.399 µM, the TGI (786-0 renal) was 1.91 µM and the GI50 (HL-60(TB) leukemia) was 0.235 µM. The TGI (HL-60(TB) leukemia) was 0.909 µM, the GI50 (UO-31 renal) was 0.294 µM and the TGI (UO-31 renal) was 1.15 µM. For the same compound, the GI50 (OVCAR-3 ovarian) was 0.397 µM and the TGI (OVCAR-3 ovarian) was 15.8 µM.
Compound `COc1ccc(C2c3c(-c4ccccc4)nn(-c4ccccc4)c3Oc3ncn(N)c(=N)c32)cc1OC` (stereo not drawn) has a TGI (SW-620 colon) greater than 25 µM, a TGI (SN12C renal) of 8.45 µM and a TGI (BT-549 breast) of 15 µM. For the same compound, the TGI (HCT-116 colon) was 3.24 µM, the TGI (A549 NSCLC) was 4.81 µM and the TGI (HT29 colon) was 4.32 µM. For the same compound, the TGI (MDA-MB-435) was 4.2 µM, the TGI (KM12 colon) was 3.33 µM and the TGI (SNB-75 CNS) was 3.92 µM. The TGI (OVCAR-8 ovarian) was 5.89 µM, the TGI (HOP-92 NSCLC) was 11 µM and the TGI (UACC-257 melanoma) was 3.82 µM. For the same compound, the TGI (PC-3 prostate) was 4.08 µM, the TGI (RPMI-8226 leukemia) was greater than 25.1 µM and the TGI (MALME-3M melanoma) was 3.24 µM. For the same compound, the TGI (SK-MEL-28 melanoma) was 4.29 µM, the TGI (U251 CNS) was greater than 100 µM and the TGI (NCI/ADR-RES ovarian) was 6.66 µM. It also gave a TGI (COLO 205 colon) of 3.53 µM, a TGI (K-562 leukemia) greater than 100 µM and a TGI (CCRF-CEM leukemia) greater than 100 µM. For the same compound, the TGI (SK-MEL-2 melanoma) was 3.51 µM, the TGI (NCI-H522 lung) was 4.15 µM and the TGI (A498 renal) was 26 µM. The TGI (NCI-H460 lung) was 3.27 µM, the TGI (NCI-H23 lung) was 6.66 µM and the TGI (TK-10 renal) was 4.24 µM. For the same compound, the TGI (DU-145 prostate) was 8.78 µM, the TGI (SNB-19 CNS) was 19.9 µM and the TGI (SR leukemia) was greater than 26.6 µM. It also gave a TGI (HS 578T breast) of 4.37 µM, a TGI (T-47D breast) of 4.48 µM and a TGI (CAKI-1 renal) of 4.15 µM. It also gave a TGI (IGROV1 ovarian) of 3.2 µM, a TGI (SK-OV-3 ovarian) of 21.6 µM and a TGI (HCC-2998 colon) of 2.76 µM. The TGI (ACHN renal) was 3.69 µM, the TGI (EKVX NSCLC) was 4.13 µM and the TGI (MCF7 breast) was 3.26 µM. The TGI (UACC-62 melanoma) was 3.72 µM, the TGI (SF-295 CNS) was 4.34 µM and the TGI (MDA-MB-231 breast) was 3.8 µM. For the same compound, the TGI (HCT-15 colon) was 4.06 µM, the TGI (SF-268 CNS) was 10.4 µM and the TGI (NCI-H226 lung) was 7.44 µM. The TGI (RXF 393 renal) was 4.53 µM, the TGI (OVCAR-4 ovarian) was 7.33 µM and the TGI (MOLT-4 leukemia) was greater than 34.4 µM. For the same compound, the TGI (OVCAR-5 ovarian) was 13.5 µM, the TGI (SF-539 CNS) was 2.6 µM and the TGI (786-0 renal) was 3 µM. It also gave a TGI (M14 melanoma) of 4.17 µM, a TGI (HL-60(TB) leukemia) greater than 100 µM and a TGI (UO-31 renal) of 3.84 µM. For the same compound, the TGI (OVCAR-3 ovarian) was 2.95 µM.
